Laboratory results taken from patent US20170239182A1, “PHARMACEUTICAL FORMULATIONS OF AND METHODS TO PREPARE CHELATING AGENTS FOR EFFICIENT METAL REMOVAL TREATMENT SYSTEMS” (ZONEONE PHARMA, INC., priority 2014, published 2017).
Counter-ions that a name gives are not always drawn.

Key:
[1] = Plasma PK of DFO after IV administration of liposomal DFO or Desferal to mice; format: in vivo, CF-1 female mice; conditions: 100 mg/kg
Procedure: Liposomes containing egg PC/Chol (3 mol/2 mol, LDFO-1), egg PC/DOPG/Chol (2.7 mol/0.3 mol/2 mol, LDFO-2), and HSPC/Chol (3 mol/2 mol, LDFO-4) containing 500 mM ammonium sulfate were prepared as in Example 1. DFO was remote loaded as in Example 20.
After loading the liposomes were purified by dialysis versus HBS pH 6.5. The liposomes were sterilized by filtration through 0.2 um PES filters and analyzed for drug and lipid content. The liposomal DFO were administered to CF-1 female mice at 100 mg/kg (n=3) and at various times the animals were sacrificed and blood taken.
After processing to plasma, DFO was extracted from plasma by mixing with 6 volumes of methanol containing 0.1% trifluoroacetic acid in an epppendorf tube. The mixtures were vortexed twice for 10 seconds then placed at −80° C. for 1 h. The samples were thawed and centrifuged for 12,000 rpm for 10 min at 4° C. and the supernatant analyzed for DFO by HPLC as described herein. […] By comparison DFO was undetectable beyond 1 h after dosing with Desferal®.

[2] = test system: Iron Overloaded Mouse Model; experiment: Liver iron removal from iron overloaded mouse model (ferrozine assay); format: in vivo, mice; conditions: IV 100 mg/kg chelator on day 7 and day 10 after iron-dextran 100 mg/kg Fe
Procedure: LDFO formulations were prepared as described in Example 1. Both formulations were composed of HSPC/cholesterol (3/0.5 (mol/mol)). One formulation was prepared using 250 mM ammonium sulfate (LDFO-AS) as the trapping agent and the second formulation was prepared using 250 mM ascorbate phosphate (LDFO-AP) as the trapping agent and all other components and DFO loading procedures of the formulations were identical. Mice were overloaded with a single IV injection of iron-dextran at 100 mg/kg Fe. Overloaded mice were treated with each formulation IV at 100 mg/kg chelator on day 7 and day 10. The mice were sacrificed after the second treatment and the livers were analyzed for iron content using a ferrozine assay (Riemer et al. 2004)

Compound | DFO in plasma ([1]; beyond 1 h after dosing) | initial dose (ID) of DFO retained in the plasma ([1]; IV, 24 h) | mean liver iron content [2] [mg/kg]
CC(=O)N(O)CCCCCNC(=O)CCC(=O)N(O)CCCCCNC(=O)CCC(=O)N(O)CCCCCN [Desferal, deferoxamine mesylate] | undetectable | undetectable | 
CC(=O)N(O)CCCCCNC(=O)CCC(=O)N(O)CCCCCNC(=O)CCC(=O)N(O)CCCCCN [free DFO, Deferoxamine] |  |  | 229
